Data set [1] can be described thus: in vitro. To be noted: human, Caco-2.
Description: Apparent permeability of the compound from basolateral to apical side in human Caco2 cells assessed as drug recovery after 120 mins by LC-MS/MS analysis
The target in data set [2] is T1, CYP3A4 (Homo sapiens, UniProt P08684). In words: Inhibition of recombinant human CYP3A4 expressed in insect cell microsomes at 1 uM using Luciferin-IPA as substrate preincubated for 10 mins followed by NADPH addition measured after 10 mins by luminometric method. In kind it is ADME. The conditions noted are these: probe Luciferin-IPA.
The target in data set [3] is T2, CYP2C9 (Homo sapiens, UniProt P11712). In words: Inhibition of recombinant human CYP2C9 expressed in insect cell microsomes at 10 uM using Luciferin-H as substrate preincubated for 30 mins followed by NADPH addition measured after 30 mins by luminometric method. The conditions noted are these: probe Luciferin-H. Format: ADME.
Data set [4] can be described thus: Inhibition of hedgehog signaling pathway in mouse Light2 cells stimulated with 100 nM SAG after 30 hrs by Gli-firefly luciferase reporter gene assay. In general terms: A reporter such as luciferase makes a cellular process visible.
A further data set is filed under the species Mus musculus. Described as above.
A further data set is filed under the species Homo sapiens. In words: Substrate activity at recombinant human P-gp in membrane fraction assessed as increase in ATPase activity at 10 uM by luminescent P-gp-Glo assay relative to control.
Data set [5] is described as follows: Inhibition of hedgehog signaling pathway-mediated differentiation of mouse C3H10T1/2 cells assessed as decrease in SAG-induced ALP activity after 6 days by chemiluminescence-based assay. The conditions noted are these: C3H 10T1/2, 144 h.
Data set [6] deals with T2, CYP2C9. In words: Inhibition of recombinant human CYP2C9 expressed in insect cell microsomes at 1 uM using Luciferin-H as substrate preincubated for 30 mins followed by NADPH addition measured after 30 mins by luminometric method. The conditions noted are these: probe Luciferin-H. Format: ADME.
The nature of data set [7]: Drug recovery in mouse plasma at 37 degC after 120 mins by HPLC-MS/MS analysis. In kind it is ADME, cell-free. The conditions noted are these: read-out: Drug recovery.
The target in data set [8] is T3, CYP2D6 (Homo sapiens, UniProt P10635). In words: Inhibition of recombinant human CYP2D6 expressed in insect cell microsomes at 10 uM using Luciferin-ME EGE as substrate preincubated for 30 mins followed by NADPH addition measured after 45 mins by luminometric method. To be noted: probe Luciferin-ME EGE. In kind it is ADME.
For data set [9], the target named is T4, CYP1A2 (Homo sapiens, UniProt P05177).
T4 sequence (P05177 whole entry): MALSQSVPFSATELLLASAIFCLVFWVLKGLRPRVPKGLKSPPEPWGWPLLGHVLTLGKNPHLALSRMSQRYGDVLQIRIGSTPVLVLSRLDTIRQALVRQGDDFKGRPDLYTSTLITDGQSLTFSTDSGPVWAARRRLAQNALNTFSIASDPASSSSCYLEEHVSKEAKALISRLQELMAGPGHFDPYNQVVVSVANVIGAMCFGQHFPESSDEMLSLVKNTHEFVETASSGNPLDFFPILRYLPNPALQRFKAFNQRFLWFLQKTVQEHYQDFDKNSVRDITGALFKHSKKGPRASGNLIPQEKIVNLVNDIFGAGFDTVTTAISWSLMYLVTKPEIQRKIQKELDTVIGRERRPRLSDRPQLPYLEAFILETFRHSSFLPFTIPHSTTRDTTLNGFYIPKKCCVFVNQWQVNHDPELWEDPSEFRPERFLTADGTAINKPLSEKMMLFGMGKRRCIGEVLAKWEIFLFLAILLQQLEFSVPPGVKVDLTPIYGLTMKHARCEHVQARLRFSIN
In words: Inhibition of recombinant human CYP1A2 expressed in insect cell microsomes at 10 uM using Luciferin-ME as substrate preincubated for 10 mins followed by NADPH addition measured after 30 mins by luminometric method. Format: ADME. The conditions noted are these: probe Luciferin-ME.

Data set [10] concerns the target T5, CYP2C19 (Homo sapiens, UniProt P33261). In words: Inhibition of recombinant human CYP2C19 expressed in insect cell microsomes at 10 uM using Luciferin-H EGE as substrate preincubated for 20 mins followed by NADPH addition measured after 30 mins by luminometric method. Format: ADME. The conditions noted are these: probe Luciferin-H EGE.
The target in data set [11] is T5, CYP2C19. In words: Inhibition of recombinant human CYP2C19 expressed in insect cell microsomes at 5 uM using Luciferin-H EGE as substrate preincubated for 20 mins followed by NADPH addition measured after 30 mins by luminometric method. In kind it is ADME. The conditions noted are these: probe Luciferin-H EGE.
The target in data set [12] is T5, CYP2C19. In words: Inhibition of recombinant human CYP2C19 expressed in insect cell microsomes at 1 uM using Luciferin-H EGE as substrate preincubated for 20 mins followed by NADPH addition measured after 30 mins by luminometric method. Format: ADME. To be noted: probe Luciferin-H EGE.
Data set [13] is described as follows: Stability of the compound in mouse deproteinized plasma at 37 degC after 120 mins by HPLC-MS/MS analysis. Format: ADME, cell-free. The conditions noted are these: 2 h.
The test system of the next data set is HT-1080. In words: Antiproliferative activity against human HT1080 cells after 72 hrs by sulforhodamine-B assay. Format: functional, cell-based. To be noted: for IC50: HT-1080, 72 h. For orientation: The SRB assay estimates cell density from bound dye.
The next data set has as its system LS180. In words: Antiproliferative activity against human LS180 cells after 72 hrs by sulforhodamine-B assay. In kind it is functional, cell-based. To be noted: for IC50: LS180, 72 h.
Data set [14] addresses T6, Coelenterazine h 2-monooxygenase (Renilla reniformis, UniProt P27652).
T6 sequence (P27652 whole entry): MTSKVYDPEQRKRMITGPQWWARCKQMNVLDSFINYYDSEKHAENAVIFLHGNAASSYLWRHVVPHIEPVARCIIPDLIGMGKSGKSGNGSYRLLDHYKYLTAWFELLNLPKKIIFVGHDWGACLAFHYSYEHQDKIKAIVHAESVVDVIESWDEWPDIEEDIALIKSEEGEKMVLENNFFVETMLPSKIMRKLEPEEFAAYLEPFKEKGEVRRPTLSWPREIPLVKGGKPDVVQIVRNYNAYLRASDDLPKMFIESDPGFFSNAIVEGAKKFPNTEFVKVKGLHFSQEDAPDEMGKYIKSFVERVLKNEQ
In words: Effect on Renilla reniformis luciferase. Format: ADME.

A short description of data set [15]: in vitro. To be noted: human, Caco-2. The source holds these as a separate data set.
Description: Apparent permeability of the compound from apical to basolateral side in human Caco2 cells assessed as drug recovery after 120 mins by LC-MS/MS analysis
For data set [16], the target named is T1, CYP3A4. In words: Inhibition of recombinant human CYP3A4 expressed in insect cell microsomes at 5 uM using Luciferin-IPA as substrate preincubated for 10 mins followed by NADPH addition measured after 10 mins by luminometric method. Format: ADME. The conditions noted are these: probe Luciferin-IPA.
For data set [17], the target named is T4, CYP1A2. In words: Inhibition of recombinant human CYP1A2 expressed in insect cell microsomes at 5 uM using Luciferin-ME as substrate preincubated for 10 mins followed by NADPH addition measured after 30 mins by luminometric method. Format: ADME. To be noted: probe Luciferin-ME.
For data set [18], the target named is T4, CYP1A2. In words: Inhibition of recombinant human CYP1A2 expressed in insect cell microsomes at 1 uM using Luciferin-ME as substrate preincubated for 10 mins followed by NADPH addition measured after 30 mins by luminometric method. Format: ADME. The conditions noted are these: probe Luciferin-ME.
Data set [19] deals with T1, CYP3A4. In words: Inhibition of recombinant human CYP3A4 expressed in insect cell microsomes at 10 uM using Luciferin-IPA as substrate preincubated for 10 mins followed by NADPH addition measured after 10 mins by luminometric method. Format: ADME. The conditions noted are these: probe Luciferin-IPA.
Data set [20] addresses T2, CYP2C9. In words: Inhibition of recombinant human CYP2C9 expressed in insect cell microsomes at 5 uM using Luciferin-H as substrate preincubated for 30 mins followed by NADPH addition measured after 30 mins by luminometric method. In kind it is ADME. To be noted: probe Luciferin-H.
Data set [21] addresses T3, CYP2D6. In words: Inhibition of recombinant human CYP2D6 expressed in insect cell microsomes at 5 uM using Luciferin-ME EGE as substrate preincubated for 30 mins followed by NADPH addition measured after 45 mins by luminometric method. To be noted: probe Luciferin-ME EGE. In kind it is ADME.
Data set [22] addresses T3, CYP2D6. In words: Inhibition of recombinant human CYP2D6 expressed in insect cell microsomes at 1 uM using Luciferin-ME EGE as substrate preincubated for 30 mins followed by NADPH addition measured after 45 mins by luminometric method. Format: ADME. To be noted: probe Luciferin-ME EGE.
A short description of data set [23]: Intrinsic clearance in mouse liver […] per million cells at 1 uM after 120 mins by HPLC-MS/MS analysis. The conditions noted are these: 2 h. Format: ADME. On the technique in general: Liver microsomes are vesicles of endoplasmic reticulum, rich in cytochrome P450 enzymes.
Data set [24] is described as follows: Intrinsic clearance in mouse liver microsomes at 1 uM after 120 mins by HPLC-MS/MS analysis. Format: ADME, microsome. To be noted: read-out: CLH.
Data set [25] in a line: Half life in cryopreserved mouse liver microsomes at 1 uM after 120 mins by HPLC-MS/MS analysis. Format: ADME, microsome.
Data set [26] in a line: in vitro. The conditions noted are these: human, Caco-2. This is another data set of the same source.
Description: Apparent permeability of the compound from apical to basolateral side in human Caco2 cells after 120 mins by LC-MS/MS analysis

Results on 7 compounds are retold here after ChEMBL document CHEMBL4270604, “Hedgehog pathway inhibitors of the acylthiourea and acylguanidine class show antitumor activity on colon cancer in vitro and in vivo” (Eur J Med Chem, 2018).

T3 sequence (P10635 whole entry): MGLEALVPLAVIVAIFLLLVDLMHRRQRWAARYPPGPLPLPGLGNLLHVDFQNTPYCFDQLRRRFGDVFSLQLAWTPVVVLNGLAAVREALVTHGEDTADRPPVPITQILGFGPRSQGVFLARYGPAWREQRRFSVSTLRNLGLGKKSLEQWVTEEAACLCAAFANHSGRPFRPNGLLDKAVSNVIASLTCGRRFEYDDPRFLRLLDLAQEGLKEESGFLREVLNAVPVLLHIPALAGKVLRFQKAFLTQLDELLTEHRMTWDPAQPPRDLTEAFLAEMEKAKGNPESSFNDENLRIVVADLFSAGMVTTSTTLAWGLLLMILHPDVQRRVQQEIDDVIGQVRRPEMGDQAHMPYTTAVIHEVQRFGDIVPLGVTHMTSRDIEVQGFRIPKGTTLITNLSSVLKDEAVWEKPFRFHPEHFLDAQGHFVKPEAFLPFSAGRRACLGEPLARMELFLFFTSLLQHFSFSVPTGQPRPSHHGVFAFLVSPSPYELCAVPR
T5 sequence (P33261 whole entry): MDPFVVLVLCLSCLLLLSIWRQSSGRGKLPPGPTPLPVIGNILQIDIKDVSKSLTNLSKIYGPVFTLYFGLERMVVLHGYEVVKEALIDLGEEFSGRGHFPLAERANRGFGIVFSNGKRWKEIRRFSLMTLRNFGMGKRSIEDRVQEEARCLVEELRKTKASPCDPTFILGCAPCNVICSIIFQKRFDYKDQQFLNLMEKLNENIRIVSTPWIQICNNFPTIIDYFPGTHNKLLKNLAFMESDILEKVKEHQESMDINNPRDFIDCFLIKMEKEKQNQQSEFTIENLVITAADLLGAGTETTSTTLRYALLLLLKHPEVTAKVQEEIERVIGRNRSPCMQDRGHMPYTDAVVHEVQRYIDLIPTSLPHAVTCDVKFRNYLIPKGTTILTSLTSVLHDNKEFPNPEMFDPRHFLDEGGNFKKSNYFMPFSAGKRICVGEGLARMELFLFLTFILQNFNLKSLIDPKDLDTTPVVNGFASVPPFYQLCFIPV
T1 sequence (P08684 whole entry): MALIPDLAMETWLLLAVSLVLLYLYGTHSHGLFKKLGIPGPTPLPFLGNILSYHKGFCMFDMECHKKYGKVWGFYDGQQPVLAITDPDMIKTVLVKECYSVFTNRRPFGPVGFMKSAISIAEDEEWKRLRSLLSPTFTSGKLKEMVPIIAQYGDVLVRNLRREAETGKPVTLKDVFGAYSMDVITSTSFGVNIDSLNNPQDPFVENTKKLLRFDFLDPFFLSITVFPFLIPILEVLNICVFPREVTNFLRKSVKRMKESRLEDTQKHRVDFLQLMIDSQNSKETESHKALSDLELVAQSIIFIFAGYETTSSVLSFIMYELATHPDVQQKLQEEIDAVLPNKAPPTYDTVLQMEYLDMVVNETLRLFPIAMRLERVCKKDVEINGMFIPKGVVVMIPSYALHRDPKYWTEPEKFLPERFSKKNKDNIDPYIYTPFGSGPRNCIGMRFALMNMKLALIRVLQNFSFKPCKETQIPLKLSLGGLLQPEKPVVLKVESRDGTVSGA
T2 sequence (P11712 whole entry): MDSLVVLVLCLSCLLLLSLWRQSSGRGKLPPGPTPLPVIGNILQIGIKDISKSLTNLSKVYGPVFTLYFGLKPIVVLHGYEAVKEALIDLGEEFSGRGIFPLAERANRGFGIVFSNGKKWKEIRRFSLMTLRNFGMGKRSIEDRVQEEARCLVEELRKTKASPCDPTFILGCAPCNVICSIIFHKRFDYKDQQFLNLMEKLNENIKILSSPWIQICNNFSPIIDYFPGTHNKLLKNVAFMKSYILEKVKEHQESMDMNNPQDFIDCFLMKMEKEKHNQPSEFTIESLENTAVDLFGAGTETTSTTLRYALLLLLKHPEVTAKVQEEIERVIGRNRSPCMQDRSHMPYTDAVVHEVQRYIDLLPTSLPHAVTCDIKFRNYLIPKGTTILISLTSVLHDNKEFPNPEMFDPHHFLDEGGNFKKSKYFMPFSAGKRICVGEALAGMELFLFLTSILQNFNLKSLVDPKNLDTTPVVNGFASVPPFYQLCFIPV

As for `COc1cc(C(=O)NC(=S)Nc2ccc(C)c(NC(=O)c3ccc(-c4ccc(F)cc4)cc3)c2)cc(OC)c1OC`, the recovery at 2 h in “in vitro [1]” worked out at 42.9%; in the data set “in vitro [15]”, 65.4%. Besides, the inhibition at 10 min, 1 µM on CYP3A4 [2] worked out at 4%. The results for the inhibition at 0.5 h, 10 µM on CYP2C9 [3], at CYP1A2 [9] and at CYP2C19 [10] were 71%, 1% and 27%, respectively. The IC50 in [4] came out at 0.1 µM; in data set [5], 0.67 µM; with HT-1080, 27 µM; in the data set with LS180 it was 7.5 µM. Besides, the inhibition entry in the data set filed under Mus musculus was “Dose-dependent effect”. In addition, the fold change (FC) in the data set listed under Homo sapiens is 3. The values for the inhibition at 0.5 h, 1 µM on CYP2C9 [6], on CYP2C19 [12] and on CYP1A2 [18] were 63%, 25% and 2%, respectively. Moreover, the remaining at 2 h in data set [7] came to 4.9%. For the same compound, on CYP2D6 [8], the inhibition at 0.75 h, 10 µM is 6%. For the same compound, the inhibition at 0.5 h, 5 µM at CYP2C19 [11] came to 33%; at CYP1A2 [17] it was 5%; at CYP2C9 [20], 69%. Also, the Stability result in data set [13] is reported as “Stable”. Also, the Activity entry was “Dose-dependent effect” in the data set on HT-1080, “Dose-dependent effect” in the data set on LS180 and “Not Active” in [14]. For the same compound, the inhibition at 10 min, 5 µM on CYP3A4 [16] was 7%. Besides, the inhibition at 10 min, 10 µM at CYP3A4 [19] was found to be 15%. For the same compound, the inhibition at 0.75 h, 5 µM on CYP2D6 [21] was 1%. In addition, the inhibition at 0.75 h, 1 µM on CYP2D6 [22] was 18%.
Take `CC(C)NCC(O)COc1ccc(CC(N)=O)cc1` (stereo not given) [ATENOLOL]: the results for the recovery at 2 h in the data set “in vitro [1]” and in the data set “in vitro [15]” were 102% and 94.7%, respectively.
Turning to `CCOc1ccc2ccc(=O)oc2c1` [ETHOXYCOUMARIN], the CLH in [23] was found to be 477 µL/min. Besides, the CLint scaled at 1 µM in data set [24] came to 75.6 L/h/kg. Further, the half-life at 1 µM in data set [25] was 4.84 min.
Consider `Cc1c(C)c2c(c(C)c1O)CCC(C)(COc1ccc(CC3SC(=O)NC3=O)cc1)O2` (stereo not given) [TROGLITAZONE], for which the inhibition at 0.5 h, 10 µM at CYP2C19 [10] amounted to 84%.
`CC(C)NCC(O)COc1cccc2ccccc12` (stereo not given) [PROPRANOLOL] registered a Papp A→B at 2 h in the data set “in vitro [26]” of 309 nm/s. This compound came in with a recovery at 2 h in the data set “in vitro [15]” of 70%.
For `COc1ccc(CCN(C)CCCC(C#N)(c2ccc(OC)c(OC)c2)C(C)C)cc1OC` (stereo not given), in the data set listed under Homo sapiens, the fold change (FC) was found to be 8.5.
`CS(=O)(=O)c1ccc(C(=O)Nc2ccc(Cl)c(-c3ccccn3)c2)c(Cl)c1` [VISMODEGIB]: the IC50 in data set [4] is 0.05 µM; in data set [5], 0.05 µM; with HT-1080, more than 100 µM; with LS180 it was 45 µM. Besides, the inhibition entry in the data set filed under Mus musculus is “Dose-dependent effect”. Further, the Activity result in the data set on HT-1080 is “Dose-dependent effect”; with LS180, “Dose-dependent effect”; in data set [14], “Not Active”.

As a reminder, the inhibition is the drop in the measured response relative to a control, in per cent. Usually IC50 stands for the concentration needed to halve the response being measured. Usually half-life stands for how long it takes for the measured level to halve. A higher half-life goes with slow loss. For orientation: Papp A→B means the apparent permeability from the apical to the basolateral side of a cell layer.
